According to patent US20060252807A1, “Novel ortho-terphenyl inhibitors of p38 kinase and methods of treating inflammatory disorders” (Kalypsys, Inc., priority 2005, published 2006):
pIC50: −log10 of the molar value.

biological target: T1, active p38 alpha enzyme (Upstate Biotechnology) (Homo sapiens, UniProt Q16539); test: p38α biochemical assay (ATP turnover, luminescent detection, Cambrex PKlight); settings: p38α kinase; Table 1 Biological Activity
T1 construct: purchased Upstate Biotechnology
T1 sequence (Q16539 whole entry): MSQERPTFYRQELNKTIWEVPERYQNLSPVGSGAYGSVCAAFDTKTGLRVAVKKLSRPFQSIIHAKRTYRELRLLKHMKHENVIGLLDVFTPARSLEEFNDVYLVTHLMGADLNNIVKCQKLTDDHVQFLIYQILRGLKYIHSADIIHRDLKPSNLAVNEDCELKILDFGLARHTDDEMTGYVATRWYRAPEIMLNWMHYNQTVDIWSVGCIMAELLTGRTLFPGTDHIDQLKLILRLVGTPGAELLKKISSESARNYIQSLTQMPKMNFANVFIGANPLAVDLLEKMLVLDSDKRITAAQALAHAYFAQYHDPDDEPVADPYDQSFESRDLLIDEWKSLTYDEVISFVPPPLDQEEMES
In short: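 Luminescent ATP-depletion readout measures total ATP turnover by p38α phosphorylating whole MapkapK2 protein. ATP 1.4 uM final; 30C, 2 h. Compounds delivered from DMSO.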

SMILES | pIC50
CC1CCC(NCc2nc(-c3ccc(F)cc3)c(-c3nc(C(=O)NC(C)C)cs3)o2)CC1 (centres unmarked) [Example 1089] | < 6.00
CC(C)NC(=O)c1csc(-c2oc(CNCC3CCCCC3)nc2-c2ccc(F)cc2)n1 [Example 1090] | < 6.00
CC(C)NC(=O)c1csc(-c2oc(CNC3CCCCCC3)nc2-c2ccc(F)cc2)n1 [Example 1091] | < 6.00
CCN(CC)CCNCc1nc(-c2ccc(F)cc2)c(-c2nc(C(=O)NC(C)C)cs2)o1 [Example 1095] | < 6.00
Cc1cccc(CNCc2nc(-c3ccc(F)cc3)c(-c3nc(C(=O)NC(C)C)cs3)o2)c1 [Example 1096] | < 6.00
Cc1ccccc1CNCc1nc(-c2ccc(F)cc2)c(-c2nc(C(=O)NC(C)C)cs2)o1 [Example 1100] | < 6.00
Cc1ccc(CNCc2nc(-c3ccc(F)cc3)c(-c3nc(C(=O)NC(C)C)cs3)o2)cc1 [Example 1101] | < 6.00
CC(C)NC(=O)c1csc(-c2oc(CNCc3ccc(F)cc3)nc2-c2ccc(F)cc2)n1 [Example 1104] | < 6.00
CC(C)NC(=O)c1csc(-c2oc(CNCc3ccccc3F)nc2-c2ccc(F)cc2)n1 [Example 1105] | < 6.00
CC(C)NC(=O)c1csc(-c2oc(CNCCC3CCCN3C)nc2-c2ccc(F)cc2)n1 (centres unmarked) [Example 1107] | < 6.00
CC(C)NC(=O)c1csc(-c2oc(CNCCN3CCCCC3)nc2-c2ccc(F)cc2)n1 [Example 1108] | < 6.00
CC(C)CCCC(C)NCc1nc(-c2ccc(F)cc2)c(-c2nc(C(=O)NC(C)C)cs2)o1 (centres unmarked) [Example 1109] | < 6.00
CC(C)NC(=O)c1csc(-c2oc(CNCCN3CCOCC3)nc2-c2ccc(F)cc2)n1 [Example 1110] | < 6.00
CC1=CCC(CCNCc2nc(-c3ccc(F)cc3)c(-c3nc(C(=O)NC(C)C)cs3)o2)C=C1 (centres unmarked) [Example 1113] | < 6.00
Cc1ccc(C)c(CNCc2nc(-c3ccc(F)cc3)c(-c3nc(C(=O)NC(C)C)cs3)o2)c1 [Example 1114] | < 6.00
Cc1ccc([C@H](C)NCc2nc(-c3ccc(F)cc3)c(-c3nc(C(=O)NC(C)C)cs3)o2)cc1 [Example 1115] | < 6.00
CC(C)NC(=O)c1csc(-c2oc(CNCC(C)c3ccccc3)nc2-c2ccc(F)cc2)n1 (centres unmarked) [Example 1117] | < 6.00
CC(C)NC(=O)c1csc(-c2oc(CNCCCc3ccccc3)nc2-c2ccc(F)cc2)n1 [Example 1119] | < 6.00
Cc1ccc(CNCc2nc(-c3ccc(F)cc3)c(-c3nc(C(=O)NC(C)C)cs3)o2)cc1C [Example 1120] | < 6.00
CC(C)NC(=O)c1csc(-c2oc(CNC(C)Cc3ccncc3)nc2-c2ccc(F)cc2)n1 (centres unmarked) [Example 1121] | < 6.00
CC(C)NC(=O)c1csc(-c2oc(CNCCOc3ccccc3)nc2-c2ccc(F)cc2)n1 [Example 1123] | < 6.00
COc1ccccc1CNCc1nc(-c2ccc(F)cc2)c(-c2nc(C(=O)NC(C)C)cs2)o1 [Example 1124] | < 6.00
COc1ccc(CNCc2nc(-c3ccc(F)cc3)c(-c3nc(C(=O)NC(C)C)cs3)o2)cc1 [Example 1125] | < 6.00

SMILES | pIC50
COc1cccc(CNCc2nc(-c3ccc(F)cc3)c(-c3nc(C(=O)NC(C)C)cs3)o2)c1 [Example 1126] | < 6.00
CC(C)NC(=O)c1csc(-c2oc(CNCCc3ccc(F)cc3)nc2-c2ccc(F)cc2)n1 [Example 1127] | < 6.00
CC(C)NC(=O)c1csc(-c2oc(CNCCc3ccccc3F)nc2-c2ccc(F)cc2)n1 [Example 1128] | < 6.00
CC(C)NC(=O)c1csc(-c2oc(CNCCc3cccc(F)c3)nc2-c2ccc(F)cc2)n1 [Example 1129] | < 6.00
CC(C)NC(=O)c1csc(-c2oc(CNCc3cccc(Cl)c3)nc2-c2ccc(F)cc2)n1 [Example 1130] | < 6.00
CC(C)NC(=O)c1csc(-c2oc(CNCc3ccccc3Cl)nc2-c2ccc(F)cc2)n1 [Example 1131] | < 6.00
CC(C)NC(=O)c1csc(-c2oc(CNCc3ccc(F)cc3F)nc2-c2ccc(F)cc2)n1 [Example 1134] | < 6.00
CC(C)NC(=O)c1csc(-c2oc(CNCc3ccc(F)c(F)c3)nc2-c2ccc(F)cc2)n1 [Example 1135] | < 6.00
CC(C)NC(=O)c1csc(-c2oc(CNC3CCCc4ccccc43)nc2-c2ccc(F)cc2)n1 (centres unmarked) [Example 1139] | < 6.00
CC(C)NC(=O)c1csc(-c2oc(CNCc3ccc(C(C)C)cc3)nc2-c2ccc(F)cc2)n1 [Example 1141] | < 6.00
CC(C)NC(=O)c1csc(-c2oc(CNCc3ccc4c(c3)OCO4)nc2-c2ccc(F)cc2)n1 [Example 1142] | < 6.00
COc1cccc(CCNCc2nc(-c3ccc(F)cc3)c(-c3nc(C(=O)NC(C)C)cs3)o2)c1 [Example 1143] | < 6.00
CC(C)NC(=O)c1csc(-c2oc(CN[C@H](CO)Cc3ccccc3)nc2-c2ccc(F)cc2)n1 [Example 1144] | < 6.00
COc1ccc(NCc2nc(-c3ccc(F)cc3)c(-c3nc(C(=O)NC(C)C)cs3)o2)cc1OC [Example 1148] | < 6.00
CC(C)NC(=O)c1csc(-c2oc(CNCCc3ccccc3Cl)nc2-c2ccc(F)cc2)n1 [Example 1149] | < 6.00
CC(C)NC(=O)c1csc(-c2oc(CNCCc3ccc(Cl)cc3)nc2-c2ccc(F)cc2)n1 [Example 1150] | < 6.00
CC(C)NC(=O)c1csc(-c2oc(CNC3CC(C)(C)NC(C)(C)C3)nc2-c2ccc(F)cc2)n1 [Example 1152] | < 6.00
CCN(CC)CCCC(C)NCc1nc(-c2ccc(F)cc2)c(-c2nc(C(=O)NC(C)C)cs2)o1 (centres unmarked) [Example 1153] | < 6.00
CC(C)NC(=O)c1csc(-c2oc(CNCc3ccc(F)c(Cl)c3)nc2-c2ccc(F)cc2)n1 [Example 1154] | < 6.00
CC(C)NC(=O)c1csc(-c2oc(CNCCNC(=O)OC(C)(C)C)nc2-c2ccc(F)cc2)n1 [Example 1156] | < 6.00
CC(C)NC(=O)c1csc(-c2oc(CNCCc3c[nH]c4ccccc34)nc2-c2ccc(F)cc2)n1 [Example 1157] | < 6.00
CC(C)NC(=O)c1csc(-c2oc(CNCC3(O)CCCCC3)nc2-c2ccc(F)cc2)n1 [Example 1160] | < 6.00

Further lines, results first:

pIC50 | SMILES
< 6.00 | CC(C)NC(=O)c1csc(-c2oc(CNC3CCCCC3C)nc2-c2ccc(F)cc2)n1 (centres unmarked) [Example 1092]
< 6.00 | CC(C)NC(=O)c1csc(-c2oc(CNCCN3CCCC3)nc2-c2ccc(F)cc2)n1 [Example 1093]
< 6.00 | CC(C)NC(=O)c1csc(-c2oc(CNN3CCN(C)CC3)nc2-c2ccc(F)cc2)n1 [Example 1094]
< 6.00 | CC(C)NC(=O)c1csc(-c2oc(CN[C@@H](C)c3ccccc3)nc2-c2ccc(F)cc2)n1 [Example 1097]
< 6.00 | CC(C)NC(=O)c1csc(-c2oc(CN[C@H](C)c3ccccc3)nc2-c2ccc(F)cc2)n1 [Example 1098]
< 6.00 | CC(C)NC(=O)c1csc(-c2oc(CNCCc3ccccc3)nc2-c2ccc(F)cc2)n1 [Example 1099]
< 6.00 | Cc1cnc(CNCc2nc(-c3ccc(F)cc3)c(-c3nc(C(=O)NC(C)C)cs3)o2)cn1 [Example 1102]
< 6.00 | CC(C)NC(=O)c1csc(-c2oc(CNCc3cccc(F)c3)nc2-c2ccc(F)cc2)n1 [Example 1103]
< 6.00 | CC(C)NC(=O)c1csc(-c2oc(CNCCCn3ccnc3)nc2-c2ccc(F)cc2)n1 [Example 1106]
< 6.00 | CCOC(=O)CC(C)NCc1nc(-c2ccc(F)cc2)c(-c2nc(C(=O)NC(C)C)cs2)o1 (centres unmarked) [Example 1111]
< 6.00 | CC(C)NC(=O)c1csc(-c2oc(CNC3CCc4ccccc43)nc2-c2ccc(F)cc2)n1 (centres unmarked) [Example 1112]
< 6.00 | Cc1ccc([C@@H](C)NCc2nc(-c3ccc(F)cc3)c(-c3nc(C(=O)NC(C)C)cs3)o2)cc1 [Example 1116]
< 6.00 | CC(C)NC(=O)c1csc(-c2oc(CNCC(C)c3ccccc3)nc2-c2ccc(F)cc2)n1 (centres unmarked) [Example 1118]
≥ 6.00 | CC(C)NC(=O)c1csc(-c2oc(CNCCc3ccc(O)cc3)nc2-c2ccc(F)cc2)n1 [Example 1122]
< 6.00 | CC(C)NC(=O)c1csc(-c2oc(CNCc3ccc(Cl)cc3)nc2-c2ccc(F)cc2)n1 [Example 1132]
< 6.00 | CC(C)NC(=O)c1csc(-c2oc(CNCCCN3CCCC3=O)nc2-c2ccc(F)cc2)n1 [Example 1133]
< 6.00 | CC(C)NC(=O)c1csc(-c2oc(CNCc3cc(F)cc(F)c3)nc2-c2ccc(F)cc2)n1 [Example 1136]
< 6.00 | CC(C)NC(=O)c1csc(-c2oc(CNCCCN3CCOCC3)nc2-c2ccc(F)cc2)n1 [Example 1137]
< 6.00 | CC(C)NC(=O)c1csc(-c2oc(CNCCN(C(C)C)C(C)C)nc2-c2ccc(F)cc2)n1 [Example 1138]
< 6.00 | CC(C)NC(=O)c1csc(-c2oc(CNC(C)CCc3ccccc3)nc2-c2ccc(F)cc2)n1 (centres unmarked) [Example 1140]
< 6.00 | COc1ccc(CCNCc2nc(-c3ccc(F)cc3)c(-c3nc(C(=O)NC(C)C)cs3)o2)cc1 [Example 1145]
< 6.00 | COc1ccccc1CCNCc1nc(-c2ccc(F)cc2)c(-c2nc(C(=O)NC(C)C)cs2)o1 [Example 1146]
< 6.00 | CCOc1ccccc1CNCc1nc(-c2ccc(F)cc2)c(-c2nc(C(=O)NC(C)C)cs2)o1 [Example 1147]
< 6.00 | CC(C)NC(=O)c1csc(-c2oc(CNCCc3cccc(Cl)c3)nc2-c2ccc(F)cc2)n1 [Example 1151]
< 6.00 | CC(C)NC(=O)c1csc(-c2oc(CN(CCC#N)Cc3ccccc3)nc2-c2ccc(F)cc2)n1 [Example 1155]
< 6.00 | CC(C)NC(=O)c1csc(-c2oc(CNCc3ccc(C(C)(C)C)cc3)nc2-c2ccc(F)cc2)n1 [Example 1158]
< 6.00 | CC(C)NC(=O)c1csc(-c2oc(CNCCCN(C)c3ccccc3)nc2-c2ccc(F)cc2)n1 [Example 1159]
< 6.00 | COc1cc(CNCc2nc(-c3ccc(F)cc3)c(-c3nc(C(=O)NC(C)C)cs3)o2)cc(OC)c1 [Example 1161]
< 6.00 | COc1ccc(CNCc2nc(-c3ccc(F)cc3)c(-c3nc(C(=O)NC(C)C)cs3)o2)cc1OC [Example 1162]
